The test system of the assay is CEM cells HIV-1 protection, formazan growth assay. Nature of the assay: NCI AIDS Antiviral Assay. The note with it: for IC50: measured here: growth of uninfected CEM cells. The method, boiled down:
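Human CEM cells, uninfected and HIV-1-infected, received five drug concentrations, and growth was read by soluble formazan assay. Compounds giving at least 50% protection were retested; reproducible 100% protection defined confirmed active.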

Where “and” joins values, the source holds several entries; their conditions need not be identical. Identical values can stand only once. Calls of active or inactive are those of the source.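 The calls were made as follows: active = compounds giving half or more protection of infected cells from virus-caused growth loss, again on retest; inactive = the rest.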

Experimental findings from PubChem BioAssay AID179 (DTP/NCI, 2004) are described below.

Take `C(=Nc1cnc2ccccc2c1)c1ccccn1`: the EC50 (as a rule, the concentration at which the effect is half-maximal) was above 407 µM and the IC50 (commonly the concentration that inhibits the measured activity by half) stood at 102 µM.

For `COc1ccc(OC)c2c1-c1nnnn1CCC2(C)C`, the EC50 was 132 µM and the concentration for half-maximal inhibition (IC50) is above 200 µM.

With `COc1ccccc1C(=O)OCC1CCCN2CCCCC12` (stereo unspecified), the EC50 is above 200 µM and the IC50 was determined as 27.5 µM.

With `NS(=O)(=O)c1cc(=O)[nH]c(=O)[nH]1`, the EC50 is above 457 µM and the IC50 was found to be 251 µM.

With `C=CC(C)(C)N[C@@H](C(=O)N1CCC[C@H]1c1nc(-c2nc(C(=O)OCC=C(C)C)c(C)o2)c(C)o1)C(C)C`, the EC50 is above 200 µM and the IC50 was determined as 58.9 µM.

With `Sc1cc2c(c3ccccc13)Nc1ccccc1S2`, the EC50 is above 200 µM and the half-inhibitory concentration (IC50) stood at 123 µM.

As for `c1ccc(N/N=C2\CC(c3ccccc3)Oc3ccccc32)cc1` (stereo unspecified), the EC50 is above 200 µM and the IC50 turned out to be 22.4 µM.

As for `Sc1ccccc1-n1c(-c2ccccc2)ccc1-c1ccccc1`, the EC50 is above 200 µM; the IC50 was 151 µM and 155 µM.

Consider `O=C(NNC(=O)c1ccncc1)C(=O)Nc1cc(Cl)c(Cl)cc1Cl`, for which the EC50 was above 18.6 µM and the IC50 is above 18.6 µM.

Consider `N#Cc1c(N)nc(N)nc1Nc1ccc(I)cc1`, for which the EC50 is above 200 µM and the IC50 is 23.4 µM.

On to `O=C(CNc1ccc(Cl)cc1Cl)NC1C=Cc2ccc(S(=O)(=O)Nc3ccc(Cl)cc3Cl)cc2C1=O` (stereo unspecified), for which the EC50 was above 200 µM and the IC50 was above 200 µM.

Consider `CCOC(=O)C(=Cn1ccc(=O)[nH]c1=S)C(=O)OCC`, for which the EC50 is above 200 µM and the IC50 was above 200 µM.

Regarding `Cc1c(N=O)cc(C(C)C)c(O)c1I`, the EC50 was above 200 µM and the IC50 was 27.5 µM.

Turning to `Clc1ccc2c(c1)-c1c3c(nn1-c1ccccc1)-c1ccccc1SC3O2` (stereo unspecified), the EC50 is above 13.5 µM and the IC50 was above 13.5 µM.

For `Cc1cn(C2CC(N(O)Cc3ccccc3)C(CO)O2)c(=O)[nH]c1=O` (stereo unspecified), the EC50 was above 200 µM and the IC50 is above 200 µM.

As to `CC(C)C1CC2C(=O)N(c3ccccc3)C(=O)C2c2[nH]c3ccccc3c21` (stereo unspecified), the outcome was inactive.

In the case of `O=C(NCCCN(CCCCN(CCCNC(=O)c1cc(S(=O)(=O)O)cc(O)c1O)C(=O)c1cc(S(=O)(=O)O)cc(O)c1O)C(=O)c1cc(S(=O)(=O)O)cc(O)c1O)c1cc(S(=O)(=O)O)cc(O)c1O`, the EC50 was above 200 µM and the IC50 worked out at 72.4 µM.

Consider `CC(C)c1cccc2sc(NC(=O)C(=O)CC(=O)c3ccc(F)cc3)nc12`, for which the result was inactive.

Turning to `CC12CCCN1C(=O)C1(C)CCCN1C2=O` (stereo unspecified), the EC50 was above 200 µM and the IC50 is above 200 µM.

Regarding `CN(C)CN1C(=O)S/C(=C2\C(=O)N(C)c3ccc(Br)cc32)C1=O`, the EC50 is above 200 µM and the IC50 was determined as 24 µM.

In the case of `O=C1c2cccc3cc([N+](=O)[O-])cc(c23)C(=O)N1O`, the EC50 is above 200 µM and the IC50 turned out to be 12 µM.

For `c1ccc(-c2cc(-c3cccs3)c(-c3cccs3)s2)cc1`, the EC50 is above 200 µM and the 50% inhibitory concentration (IC50) was 36.3 µM.

As to `CCOc1ccc(NC2=CC(=O)C(=O)c3ccccc32)cc1`, the EC50 is above 9.55 µM and the half-inhibitory concentration (IC50) is above 9.55 µM.

In the case of `CCCCCCCCCCCCOS(=O)(=O)O`, the EC50 is above 871 µM and the IC50 stood at 195 µM.

As for `Cc1cc(C)n(-c2nc3ccccc3c(=O)[nH]2)n1`, the EC50 was above 5.13 µM and the IC50 worked out at 1.07 µM.

For `O=C(O)c1cc(N=Nc2cccc([N+](=O)[O-])c2)ccc1O`, the EC50 was above 200 µM and the IC50 came out at 67.6 µM.

For the molecule `CSc1nc(Nc2cccc(C(F)(F)F)c2)c2c(N)nn(C)c2n1`, the EC50 was above 200 µM and the IC50 is above 200 µM.

For `O=C1NC2(CCN(CCCC3(c4ccc(F)cc4)OCCO3)CC2)Oc2ccccc21`, the EC50 was above 100 µM and the IC50 was above 100 µM.

Regarding `CC(=O)NN(c1ccccc1)C1CCN(c2ccccc2)N1C(C)=O` (stereo unspecified), the EC50 was above 200 µM and the IC50 was found to be 10.7 µM.

Turning to `O=C(NCc1cccc(C(F)(F)F)c1)c1cc2sccc2nc1C(F)(F)F`, the EC50 is above 200 µM and the IC50 is above 200 µM.

As for `CC(C)(C)OC(=O)NNC(=O)C1Cc2ccccc2OC1=O` (stereo unspecified), the EC50 is above 200 µM and the IC50 is above 200 µM.

As for `COc1ccc(C2OCC3C2CO[C@H]3c2ccc(OC)c(OC)c2)cc1OC` (mixture of isomers), the EC50 is above 200 µM and the IC50 was 93.3 µM.

Consider `Cc1ccc2c(c1)C(=O)CC1CC(=O)c3ccccc3C21` (stereo unspecified), for which the EC50 was above 200 µM and the IC50 is above 200 µM.

For `NNC(=O)c1ccc(-n2nnc(C(=O)NN)c2C(=O)NN)cc1`, the EC50 is above 501 µM and the 50% inhibitory concentration (IC50) is above 501 µM.

`COc1ccc2nc(-c3cccs3)cc(C(O)CN3CCSCC3)c2c1` (stereo unspecified): the result was inactive.

As for `CCOC(OC(C)=O)[C@@H]1C=C[C@H](C)N(c2ccc([N+](=O)[O-])cc2)O1` (stereo partly specified), the EC50 is above 40.7 µM and the IC50 worked out at 2.24 µM.

For `COc1ccc(C(=O)C(c2ccc(OC)cc2)C2(O)C(=O)Nc3c(Cl)cc(Cl)cc32)cc1` (stereo unspecified), the EC50 was above 39.8 µM and the IC50 is above 39.8 µM.

With `N#Cc1cccc(NC(=O)c2ccc(C(=O)O)c(C(=O)c3ccc(C(=O)O)c(C(=O)Nc4cccc(C#N)c4)c3)c2)c1`, the EC50 was above 170 µM and the IC50 was above 170 µM.

As to `CCc1c(N=[N+]=[N-])c2ccccc2oc1=O`, the result was inactive.

`Brc1c(C(Br)Br)ccc2ccccc12`: the EC50 was above 200 µM and the IC50 worked out at 23.4 µM.

`CC(C)OC1OC(CO)C(O)CC1n1cc(F)c(=O)[nH]c1=O` (stereo unspecified): the EC50 was above 200 µM and the IC50 amounted to 24.5 µM.

`O=C1C=C(Nc2ccccc2C(=O)c2ccccc2)c2ccccc2C1=O`: the EC50 was above 2.95 µM and the IC50 was above 2.95 µM.

For `CC1(C)COC2(C)ON12` (stereo unspecified), the EC50 is above 200 µM and the IC50 was above 200 µM.

Consider `Cc1nc(Cl)nc2c1C(=O)Nc1ccccc1N2`, for which the EC50 was above 52.5 µM and the IC50 was determined as 26.9 µM.

On to `Oc1cc2ccc3c(c2cc1O)CCc1cn[nH]c1-3`, for which the EC50 is above 10.7 µM and the IC50 is above 10.7 µM.

Take `CC(=O)OCC1OC(N2C(c3ccccc3)=CC(c3ccccc3)C(C#N)=C2S)C(OC(C)=O)C(OC(C)=O)C1OC(C)=O` (stereo unspecified): the EC50 is above 200 µM and the IC50 is 77.6 µM.

For the molecule `O=C(O)Cc1cccc(=O)c(O)c1C(=O)O`, the EC50 is above 200 µM and the IC50 was 129 µM.

Turning to `O=C1Oc2ccccc2C(=O)/C1=C/N1C(=O)/C(=C/c2ccc([N+](=O)[O-])cc2)SC1=S`, the EC50 was above 200 µM and the IC50 amounted to 1.1 µM.

For `CC1(CCCCO)C=CC(S(=O)(=O)c2ccccc2)CC1` (stereo unspecified), the outcome was inactive.

Take `O=C(CC1NCCS1)OCc1ccc(Br)cc1` (stereo unspecified): the EC50 was 19.1 µM and the half-maximal inhibitory concentration (IC50) is 81.3 µM.

On to `O=C(O)/C=C\C(=O)Nc1ccccc1O`, for which the EC50 was above 200 µM and the half-maximal inhibitory concentration (IC50) was above 200 µM.

Take `CC1=NC(=O)C(C)(c2ccccc2)N1CCc1ccccc1` (stereo unspecified): the EC50 is above 200 µM and the IC50 amounted to 45.7 µM.

As for `CCN(CC)/[N+]([O-])=N/OCOC`, the EC50 was above 200 µM and the IC50 was above 200 µM.

Take `CC(CNc1ccc(Cl)cc1)(CNc1ccc(Cl)cc1)[N+](=O)[O-]`: the EC50 is above 14.8 µM and the IC50 was above 14.8 µM.

As for `CC1CCC(=O)NCCCCC(=O)N1` (stereo unspecified), the EC50 was above 36.3 µM and the IC50 was above 36.3 µM.

Consider `Cc1ccc(-c2cn3c(nc4ccccc43)c(C)n2)cc1`, for which the EC50 is above 200 µM and the IC50 is 66.1 µM.

Regarding `CCOC(=O)c1ccc(N=Cc2ccc(N(CCC#N)S(=O)(=O)c3ccccc3)cc2C)cc1`, the EC50 is above 75.9 µM and the IC50 was above 75.9 µM.

Consider `OCCNNCCO`, for which the EC50 was above 200 µM and the IC50 was above 200 µM.

Consider `Cc1cc(C)nc(NC(=S)Nc2ccc([N+](=O)[O-])cc2)c1`, for which the EC50 is above 200 µM and the half-maximal inhibitory concentration (IC50) is above 200 µM.

In the case of `Cc1cc(=O)oc2cc(OCc3nc4ccccc4c(=O)n3-c3ccccc3)ccc12`, the EC50 was above 43.7 µM and the IC50 was above 43.7 µM.

In the case of `CC(C)Oc1nc(N2CCNCC2)nc2c1CCC2`, the EC50 is above 200 µM and the IC50 amounted to 39.8 µM.

For `COC(=O)c1cc2cc3c(c(O)c2c(=O)o1)O[C@@]1(Oc2c(O)c4c(c(O)c2[C@H]1OC1CC(OC)C(O)C(C)O1)C(=O)C=C(OC)C4=O)[C@H](O)C3` (stereo partly specified), the EC50 was above 200 µM and the IC50 stood at 3.31 µM.

Regarding `Cc1cc(S(=O)(=O)Nc2n[nH]c(-c3ccccn3)n2)c(S)cc1Cl`, the EC50 is above 200 µM and the IC50 amounted to 4.17 µM.

As for `CP(=O)(O)C(N)Cc1c[nH]c2ccccc12` (stereo unspecified), the EC50 is above 100 µM and the IC50 is above 100 µM.

With `O=C(NC(=O)c1c(F)cccc1F)Nc1ncc(Br)cc1Br`, the EC50 was above 200 µM and the IC50 was above 200 µM.

Consider `CSc1ccc(C(=C=C=C(c2ccc(SC)s2)c2ccc(SC)s2)c2ccc(SC)s2)s1`, for which the EC50 is above 200 µM and the IC50 was above 200 µM.

`N#CC(C#N)=C1CCC2C(=C(C#N)C#N)CCC12` (stereo unspecified): the outcome was inactive.

`CC1(C)CC2=NOS3=C2C(=NO3)C1c1ccccn1` (stereo unspecified): the EC50 was above 200 µM and the IC50 was 95.5 µM.

As to `CC(C)(C)COC(=O)C(C)(C)NC(=O)C(CC(=O)OCc1ccccc1)NC(=O)OCc1ccccc1` (stereo unspecified), the EC50 is above 200 µM and the IC50 worked out at 19.1 µM.

Consider `NC(CCOCCP(=O)(O)O)C(=O)O` (stereo unspecified), for which the EC50 was above 200 µM and the IC50 was above 200 µM.

For `CC(=N\N=C\c1ccccn1)/C(C)=N/N=C(C)/C(C)=N/N=C/c1ccccn1`, the result was inactive.

With `COc1ccc(-n2c(C)nc3ccc(NC4OCC(O)C(O)C4O)cc3c2=O)cc1` (stereo unspecified), the EC50 was above 200 µM; the 50% inhibitory concentration (IC50) was 69.2 µM and 45.7 µM.

Regarding `O=C(CN1CCOCC1)CC(O)(C(F)(F)F)C(F)(F)F`, the EC50 was above 200 µM and the IC50 was found to be 95.5 µM.

Turning to `CC(c1ccccc1)[P+](c1ccccc1)(c1ccccc1)c1ccccc1` (stereo unspecified), the EC50 is above 200 µM and the IC50 amounted to 1.32 µM.
